Assay [1] relates to TNFα secretion. Description: cells. The settings on record: Homo sapiens, read-out: TNFα inhibition.
Method: (§1) The compound dilution matrix was assayed using a TNFα ELISA method. Briefly, a 100 μl suspension of diluted human peripheral blood mononuclear cells (PBMCs) contained within each well of a polystyrene 384-well plate (NalgeNunc) was stimulated to secrete TNFα by treatment with a final concentration of 10 ng/ml phorbol 12-myristate 13-acetate (Sigma) and 750 ng/μl ionomycin (Sigma). Various concentrations of each test compound were added at the time of stimulation. After 16-18 hours of incubation at 37° C. in a humidified incubator, the plate was centrifuged and the supernatant transferred to a white opaque polystyrene 384 well plate (NalgeNunc, Maxisorb) coated with an anti-TNF antibody (PharMingen, #18631 D). After a two-hour incubation, the plate was washed (Tecan PowerWasher 384) with phosphate buffered saline (PBS) containing 0.1% Tween 20 (polyoxyethylene sorbitan monolaurate) and incubated for an additional one hour with another anti-TNF antibody that was biotin labeled (PharMingen, 18642D) and horseradish peroxidase (HRP) coupled to strepavidin (PharMingen, #13047E). After the plate was washed with 0.1% Tween 20/PBS, the HRP substrate (which contains luminol, hydrogen peroxide, and an enhancer such as para-iodophenol) was added to each well and light intensity measured using a LJL Analyst luminometer. Control wells contained a final concentration of 1 μg/ml cyclosporin A (Sigma).
Assay [2] has as its system TNFα secretion. The assay is described as follows: TNFα ELISA; suppression of TNFα secretion from phorbol 12-myristate 13-acetate and ionomycin stimulated PBMCs/blood. The settings on record: Homo sapiens, PBMC; for inhibition at 0.05 µM: amoxapine 0.050 μM alone (prednisolone 0.000 μM); for inhibition at 0.199 µM: amoxapine 0.199 μM alone (prednisolone 0.000 μM); for inhibition at 0.797 µM: amoxapine 0.797 μM alone (prednisolone 0.000 μM); for inhibition at 0.004 µM: prednisolone 0.004 μM alone (amoxapine 0.000 μM); for inhibition at 0.017 µM: prednisolone 0.017 μM alone (amoxapine 0.000 μM); for inhibition at 0.069 µM: prednisolone 0.069 μM alone (amoxapine 0.000 μM); for inhibition at 0.277 µM: prednisolone 0.277 μM alone (amoxapine 0.000 μM).
Method: Stock solutions of amoxapine (16 mg/ml) (Sigma-Aldrich, St. Louis, Mo.; catalog number A129) and prednisolone (1.6 mg/ml) (Sigma-Aldrich, catalog number P6004) were made in dimethylsulfoxide (DMSO). The amoxapine master plates were made by adding 25 μl of the concentrated stock solution to columns 3, 9, and 15 (rows C through N) of a polypropylene 384-well storage plate that had been pre-filled with 75 μl of anhydrous DMSO. Using a TomTec Quadra Plus liquid handler, the 25 μl of amoxapine stock solution was serially diluted two-fold four times into the adjacent columns (columns 4-7, 10-13, 16-19). […] The prednisolone master plates were made by adding 25 μl of the concentrated prednisolone stock solution to the appropriate wells (row C, columns 3-8; row C, columns 9-14; row C, columns 15-20; row I, columns 3-8; row I, columns 9-14; row I, columns 15-20) of the appropriate prednisolone master polypropylene 384-well storage plate. These master plates had been pre-filled with 75 μl of anhydrous DMSO. Using the TomTec Quadra Plus liquid handler, the 25 μl was serially diluted two-fold four times in the adjacent rows (rows D-G, and J-M). […] Master plates were sealed and stored at −20 C until ready for use.
The final amoxapine/prednisolone combination plate was generated by transferring 1 μl from each of the amoxapine and prednisolone master plates to a dilution plate containing 100 μl of media (RPMI; Gibco BRL, #11875-085), 10% Fetal Bovine Serum (Gibco BRL, #25140-097), 2% Penicillin/Streptomycin (Gibco BRL, #15140-122)) using the TomTec Quadra Plus liquid handler. This dilution plate was then mixed and a 10 μl aliquot transferred to the final assay plate, which had been pre-filled with 40 μl/well RPMI media containing the appropriate stimulant to activate TNFα secretion (see below).
as §1

The mark [3] stands for this setting: read-out: TNFα inhibition, Table 1.
Setting [4] is: read-out: TNFα inhibition, Table 2.

For two compounds, inhibition results are on record in patent US6897206B2, “Combinations for the treatment of inflammatory disorders” (CombinatoRx, Inc., priority 2001, dated 2005).

As for `Clc1ccc2c(c1)C(N1CCNCC1)=Nc1ccccc1O2` [Amoxapine, 2-cloro-11(1-piperazinyl)dibenz[b,f][1,4]oxapine], in the assay on TNFα secretion [1], the inhibition at 0.05 µM came to 3%, the inhibition at 0.1 µM stood at 5.52%, the inhibition at 0.199 µM amounted to 2.39% and the inhibition at 0.398 µM amounted to 8.1%. For the same compound, in the assay with TNFα secretion [1], the inhibition at 0.797 µM amounted to 13.1%, the inhibition at 1.593 µM came out at 16.8%, the inhibition at 3.187 µM was 24.2% and the inhibition at 6.373 µM was 21.3%. The inhibition at 12.747 µM with TNFα secretion [1] was 49.6%. In addition, the inhibition at 0.4 µM with TNFα secretion [2] (read-out: TNFα inhibition activity, follow-up secondary screen, amoxapine alone at 400 nM) was 16%. In the assay on TNFα secretion [2] (setting [3]), the inhibition at 0.05 µM stood at 7.3%, the inhibition at 0.199 µM is 16.7% and the inhibition at 0.797 µM amounted to 24.3%. In addition, the inhibition at 3.188 µM with TNFα secretion [2] (read-out: TNFα inhibition, Table 1, amoxapine 3.188 μM alone (prednisolone 0.000 μM)) worked out at 50.4%. The inhibition at 12.75 µM in the assay on TNFα secretion [2] (read-out: TNFα inhibition, Table 1, amoxapine 12.750 μM alone (prednisolone 0.000 μM)) came out at 73%. Moreover, in the assay with TNFα secretion [2] (setting [4]), the inhibition at 0.05 µM is -3.31%, the inhibition at 0.199 µM worked out at 14.2% and the inhibition at 0.797 µM was 21.9%. Besides, the inhibition at 0.1 µM with TNFα secretion [2] (read-out: TNFα inhibition, Table 2, amoxapine 0.100 μM alone (prednisolone 0.000 μM)) was 3.6%. For the same compound, the inhibition at 0.398 µM in the assay with TNFα secretion [2] (read-out: TNFα inhibition, Table 2, amoxapine 0.398 μM alone (prednisolone 0.000 μM)) worked out at 16.4%. In addition, in the assay with TNFα secretion [2] (read-out: TNFα inhibition, Table 2, amoxapine 1.593 μM alone (prednisolone 0.000 μM)), the inhibition at 1.593 µM was determined as 37.1%. Moreover, in the assay with TNFα secretion [2] (read-out: TNFα inhibition, Table 2, amoxapine 3.187 μM alone (prednisolone 0.000 μM)), the inhibition at 3.187 µM was determined as 48%. Further, the inhibition at 6.373 µM with TNFα secretion [2] (read-out: TNFα inhibition, Table 2, amoxapine 6.373 μM alone (prednisolone 0.000 μM)) came out at 64.4%. Besides, the inhibition at 12.747 µM in the assay with TNFα secretion [2] (read-out: TNFα inhibition, Table 2, amoxapine 12.747 μM alone (prednisolone 0.000 μM)) is 80.9%.

For `C[C@]12C=CC(=O)C=C1CC[C@@H]1[C@@H]2[C@@H](O)C[C@@]2(C)[C@H]1CC[C@]2(O)C(=O)CO` [Prednisolone, 1,4-pregnadiene-11beta, 17alpha,21-triol-3,20-dione], the inhibition at 0.004 µM came to 12.1% in the assay on TNFα secretion [1], 2.69% in the assay on TNFα secretion [2] (setting [3]) and 9.62% in the assay with TNFα secretion [2] (setting [4]). For the same compound, the inhibition at 0.009 µM was 30.2% in the assay on TNFα secretion [1]; 14% with TNFα secretion [2] (read-out: TNFα inhibition activity, follow-up secondary screen, prednisolone alone at 9 nM); 14.3% in the assay on TNFα secretion [2] (read-out: TNFα inhibition, Table 2, prednisolone 0.009 μM alone (amoxapine 0.000 μM)). Further, the inhibition at 0.017 µM with TNFα secretion [1] was found to be 37.1%; with TNFα secretion [2] (setting [3]), 19.1%; in the assay on TNFα secretion [2] (setting [4]) it was 24.7%. For the same compound, the inhibition at 0.035 µM in the assay on TNFα secretion [1] was found to be 33.1%; in the assay on TNFα secretion [2] (read-out: TNFα inhibition, Table 2, prednisolone 0.035 μM alone (amoxapine 0.000 μM)), 24.1%. Moreover, the inhibition at 0.069 µM is 38.8% with TNFα secretion [1], 22.3% in the assay on TNFα secretion [2] (setting [3]) and 24.6% in the assay with TNFα secretion [2] (setting [4]). Further, the inhibition at 0.139 µM with TNFα secretion [1] was found to be 48.5%; in the assay with TNFα secretion [2] (read-out: TNFα inhibition, Table 2, prednisolone 0.139 μM alone (amoxapine 0.000 μM)), 25.7%. For the same compound, the inhibition at 0.277 µM worked out at 48.8% in the assay on TNFα secretion [1], 26.8% with TNFα secretion [2] (setting [3]) and 36.9% in the assay with TNFα secretion [2] (setting [4]). Besides, the inhibition at 1.11 µM was determined as 60.1% in the assay with TNFα secretion [1]; 27.6% in the assay on TNFα secretion [2] (read-out: TNFα inhibition, Table 1, prednisolone 1.110 μM alone (amoxapine 0.000 μM)); 34.6% in the assay on TNFα secretion [2] (read-out: TNFα inhibition, Table 2, prednisolone 1.110 μM alone (amoxapine 0.000 μM)); 35% in the assay with TNFα secretion [2] (read-out: TNFα inhibition, follow-up secondary screen, 1110 nM prednisolone alone); 28% in the assay on TNFα secretion [2] (read-out: inhibit TNFα secretion, prednisolone alone at 1.11 μM).
